From patent publication US12178791B2, “Haloallylamine sulfone derivative inhibitors of lysyl oxidases and uses thereof” (Syntara Limited, priority 2018, dated 2024)
Entries after “also recorded” stand apart in the source; their conditions may differ. Counter-ions that a name gives are not always drawn.

Tests used:
[1] = system: scar tissue after excision of dermal tissue; assay: Rodent injury model; type: in vivo, mice; details: 1% solution topical
Protocol: Mice received injury by excision of dermal tissue. In the treatment group, 1% Compound 1 solution was applied topically from 24 hours post injury to 1 week post injury. Wounds were then left to heal for an additional week. Mice were euthanized at 14 days post injury and the tissue was analyzed for collagen I content, and changes in gross morphology and histology.

lysyl oxidase [2] = assay: Target engagement: lysyl oxidase activity, ear slice assay; type: in vivo, Wistar rats
Protocol: The ears, collected right after sacrifice of the rats (treated or untreated with a LOX inhibitor), were snap frozen in dry ice for −80° C. storage. For the assay, 5×5 mm samples were cut (still half-thawed), embedded in agarose gel and cut in cross sections […] thick (vibratome). The thin sections were collected in ice cold PBS containing protease inhibitors, and allowed to rest in the bath for 2-3 hours, to allow soluble contaminants to diffuse away prior to the assay. For a 96 well plate format: three thin slices were collected, gently blotted dry on Kimwipe, and transferred to each well containing 100 μl of assay buffer (1.2 M urea, 50 mM sodium borate buffer, pH 8.2), for a 30 minute pre-incubation at 37° C. in presence of 1 μM mofegiline and 500 μM pargyline. BAPN (500 μM) had been added to all the “low control” wells. A minimum of three replicas were performed for each condition.
After pre-incubation, 100 μl of Amplex Red-horseradish peroxidase (HRP) mix (120 μM Amplex Red, 1.5 U/mL HRP, 20 mM putrescine) were added to all wells, and the plate was read at 37° C. every 2.5 minutes for 13 times, (544 nm excitation and 590 nm emission, on a BMG Clariostar, in orbital, top reading mode). The slope of the kinetic curves, subtracted by the values obtained in the low controls (in presence of BAPN), was considered a measure of the specific lysyl oxidase activity in the sample.
Young male Wistar rats were given a single oral dose (10 or 30 mg/kg) of Compounds 1 or 33 (Table 5 and 6 respectively) and the enzymatic activity was measured in tissues with a high basal activity at this age, in the ear (FIGS. 2a and b; Compound 1 and 33 respectively) and aorta (FIG. 3c; Compound 33 only). The responses were normalised to the activity measured in animals treated with saline (control).

rhSSAO = rhSSAO (Homo sapiens (Human), UniProt Q16853); assay: Measurement of substrate turnover by SSAO; type: biochemical; details: compound 2.5 mM, relative to background (dimethyl sulfoxide only)
rhSSAO, sequence (Q16853 whole entry): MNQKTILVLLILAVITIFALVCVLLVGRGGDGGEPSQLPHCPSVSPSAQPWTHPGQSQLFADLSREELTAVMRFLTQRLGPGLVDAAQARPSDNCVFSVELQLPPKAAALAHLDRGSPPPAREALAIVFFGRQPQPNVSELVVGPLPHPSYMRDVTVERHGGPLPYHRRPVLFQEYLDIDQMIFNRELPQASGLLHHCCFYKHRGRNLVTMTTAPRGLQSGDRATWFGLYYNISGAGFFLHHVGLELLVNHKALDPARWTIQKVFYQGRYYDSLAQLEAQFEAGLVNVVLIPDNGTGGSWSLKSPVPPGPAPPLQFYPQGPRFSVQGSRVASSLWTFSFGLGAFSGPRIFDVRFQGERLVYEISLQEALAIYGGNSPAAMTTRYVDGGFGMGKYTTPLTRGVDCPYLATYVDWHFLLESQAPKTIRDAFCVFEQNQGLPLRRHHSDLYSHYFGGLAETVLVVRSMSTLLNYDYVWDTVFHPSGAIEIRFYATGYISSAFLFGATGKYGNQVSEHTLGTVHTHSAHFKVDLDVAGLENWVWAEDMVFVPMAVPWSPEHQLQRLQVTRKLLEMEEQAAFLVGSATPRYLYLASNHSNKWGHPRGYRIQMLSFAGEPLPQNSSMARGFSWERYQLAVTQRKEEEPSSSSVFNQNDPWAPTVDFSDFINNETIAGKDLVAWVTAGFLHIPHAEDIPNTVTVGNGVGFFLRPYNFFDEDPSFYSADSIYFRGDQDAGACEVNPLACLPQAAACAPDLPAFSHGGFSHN
Protocol: In brief, the assay employed determines the substrate propensity of a compound relative to background (dimethyl sulfoxide only). Compound oxidation by rhSSAO was measured by fluorometric assay (Holt and Palcic, 2006). Briefly, rhSSAO was incubated for 2 hours at 37° C. in HEPES buffer before the addition of an equal volume of Amplex Red ([…]), horseradish peroxidase (4 U/ml), and Compound (2.5 mM) in the same buffer. The kinetics of the formation of resorufin was measured immediately using Optima reader (BMG Labtech GmbH, Ortenburg, Germany), at 37° C.

[3] = system: deep dermal burn injuries; assay: Porcine burn injury model; type: in vivo, pigs; details: 3% topical daily for 4 weeks
Protocol: Pigs received 4×25 cm^2 deep dermal burn injuries, 2 on each flank. From the time of re-epithelialisation, on each pig, 2 wounds were treated with 3% Compound 1 cream daily for 4 weeks and 2 received control cream. Pigs were euthanized and tissue was processed for analysis.

lysyl oxidase [4] = assay: Target engagement: lysyl oxidase activity in the aorta; type: in vivo, Wistar rats
Protocol: Sample preparation: All preparation activities were performed on ice, with buffers in presence of proteases inhibitors (PMSF: Sigma P7626, 0.25 mM, Aprotinin: Sigma A6279, 1 μL per mL) (Methods in Cell Biology, 2018; 143: 147-156). The surrounding adventitia and muscle/fat from the frozen aorta sample was removed in ice-cold Wash Buffer (0.15 M NaCl, 50 mM sodium borate, pH=8.0, with protease inhibitors) using fine forceps, under a dissecting microscope. The aorta was blotted on a Kimwipe and weighed in a 1.5 mL Eppendorf tube and left on ice. After snap-freezing the aorta in liquid nitrogen, a mortar and the pestle (stored at −80° C.) was used to pulverize the tissue. The pulverized tissue was transferred to a designated tube containing metal beads, 10× v/w Wash Buffer+protease inhibitors. The tissues was homogenized for 5 seconds using a bead-mill. The homogenate was centrifuged at 10,000×g for 10 minutes at 4° C. and the supernatant was discarded. Homogenization and washing steps were repeated twice more. […]
Assay: Pargyline (final concentration 0.5 mM) and mofegiline (final concentration 1 μM) were added to the samples. […] Plate fluorescence was then measured every 2.5 min (Ex: 544 nm/Em: 590 nm/gain: 1260; 37° C.) on Fluostar™.
[…] The responses were normalised to the activity measured in animals treated with saline (control).

[5] = system: bleomycin-induced lung fibrosis; assay: Bleomycin-induced lung fibrosis model; type: in vivo, C57Bl/6 mice; details: daily oral gavage for 21 days
Protocol: C57Bl/6 mice were given 1.5 U/kg amounts of generic clinical Bleomycin (Blenoxane) via oropharyngeal administration. Compound 33 was dosed daily via oral gavage for 21 days, after which time, tissues were harvested and analyzed.

[6] = vs control cream, hydrochloride

SMILES	Collagen I quantity (LCMS, normalized for protein content) ([1]; 24 hours to 1 week post injury, analysis 14 days post injury, vs control, hydrochloride)	Histology: collagen bundles in scar tissue ([1]; 14 days post injury)	LOX activity in rat ear (lysyl oxidase [2]; 24 hours after single oral dose at 10 and 30 mg/kg, vs saline control, hydrochloride)	Substrate activity for rhSSAO (rhSSAO)	Gross morphology and histology: thick collagen fibers [3]	LOX activity in treated tissue [3, 6]	total collagen I protein [3, 6]	lysyl oxidase activity in rat tissue (lysyl oxidase [2]; single high (30 mg/kg) oral dose)	half-life of recovery of lysyl oxidase activity (ear) (lysyl oxidase [2]; single oral dose 30 mg/kg)	half-life of recovery of lysyl oxidase activity (aorta) (lysyl oxidase [4]; single oral dose)	lysyl oxidase enzymatic activity in rat aorta (lysyl oxidase [4]; single oral dose at 5, 10 or 30 mg/kg, vs untreated control)	lung weight [5]	reduction of immature (DHLNL) cross-links per lung [5]	reduction of mature (PYD) cross-links per lung [5]	Ashcroft score ([5]; dihydrochloride)
NC/C=C(\F)CS(=O)(=O)c1ccccc1 [Compound 1, (Z)-3-fluoro-4-(phenylsulfonyl)but-2-en-1-amine hydrochloride]	reduction in collagen; also recorded: reduced	decreased density of bundles	dose-dependent block; also recorded: dose dependent, sustained reduction	no significant turnover	reduced density	reduction; also recorded: significantly reduced	reduction; also recorded: significantly reduced	–	–	–	–	–	–	–	–
NC/C=C(\F)CS(=O)(=O)c1cccc2cccnc12 [Compound 33, (Z)-3-fluoro-4-(quinolin-8-ylsulfonyl)but-2-en-1-amine dihydrochloride]	–	–	–	–	–	–	–	completely abolish	48 to 72 h	24 h	dose-dependent block	significantly reduced	37%	45%	reduce; also recorded: significantly reduced
